Patent US20040142993A1, “Inhibitors of HCV NS5B polymerase” (priority 2002, published 2004)
Where a name gives a salt, the structure may show the parent alone.

Target: HCV NS5b RNA dependent RNA polymerase (Hepatitis C virus genotype 1a, UniProt P27958)
Assay: Inhibition of HCV NS5b RNA dependent RNA polymerase activity (incorporation of 3H labeled GTP, scintillation proximity)
Type: biochemical
Conditions: HCV NS5b polymerase assay; read-out: concentration for 50% inhibition (inhibitory activity, Table 2)
Protocol: Compounds of the present invention are evaluated for inhibition of HCV NS5b RNA dependent RNA polymerase activity in assays comprised of a suitable buffer (e.g. 20 mM Tris-HCl pH 7.6), primed or unprimed RNA templates, GTP, ATP, CTP, and UTP, MnCl2 or MgCl2, and reducing agent such as 10 mM dithiothreitol or 2-mercaptoethanol. The assay buffer may contain salts such as ammonium acetate, KCl, or NaCl, and nonionic or zwitterionic detergents such as Tween or CHAPS. The incorporation of nucleotides into the complementary RNA strand may be monitored by the incorporation of radiolabeled NTP (e.g. ^3H labeled GTP). Suitable RNA templates for de novo initiation in the presence of 20-50 μM GTP or ATP are the homopolymers poly rC and poly rU, respectively. Heteropolymer RNA templates with 1-3 cytidine (C) bases or 1-3 uridine (U) bases at the 3′ terminus of the template may also be used for de novo initiation. Primed RNA templates such as poly rC primed with oligo rG or oligo dG, and poly rA primed with oligo rU may also be used to detect polymerase activity. The primers may be any length greater than 10 bases. A biotin residue may be added to the 5′ end of the template or the 5′ end of the primer to capture the template and the newly synthesized, complementary strand on avidin coated spheres. One embodiment of this technology consists of a mixture of NS5b polymerase, a poly rC RNA template primed with 5′ biotinylated oligo rG, 20 mM Tris HCl pH 7.6, 100 mM ammonium acetate, 10 mM dithiothreitol, 2 mM CHAPS, 1 mM MgCl2, and 150-200 nM ^3H labeled GTP. Test compounds (inhibitors) may be incorporated in the reaction mixture with up to 10% DMSO. The reaction is run for various times (1-180 minutes) at 22-37° C., and stopped by the addition of 10-140 mM EDTA. Scintillation Proximity Assay avidin-coated beads (Amersham Pharmacia Biotech) are added to capture the ds RNA product; or the reaction mixtures may be transferred to avidin coated Flash Plates (Perkin Elmer Life Sciences). The incorporation of radiolabeled GTP into the complementary strand is measured in 96, 384, or 1536 well plates in scintillation counters such as the Wallac Microbeta and Packard TopCount.

HCV NS5b RNA dependent RNA polymerase, sequence (P27958 2421-3011): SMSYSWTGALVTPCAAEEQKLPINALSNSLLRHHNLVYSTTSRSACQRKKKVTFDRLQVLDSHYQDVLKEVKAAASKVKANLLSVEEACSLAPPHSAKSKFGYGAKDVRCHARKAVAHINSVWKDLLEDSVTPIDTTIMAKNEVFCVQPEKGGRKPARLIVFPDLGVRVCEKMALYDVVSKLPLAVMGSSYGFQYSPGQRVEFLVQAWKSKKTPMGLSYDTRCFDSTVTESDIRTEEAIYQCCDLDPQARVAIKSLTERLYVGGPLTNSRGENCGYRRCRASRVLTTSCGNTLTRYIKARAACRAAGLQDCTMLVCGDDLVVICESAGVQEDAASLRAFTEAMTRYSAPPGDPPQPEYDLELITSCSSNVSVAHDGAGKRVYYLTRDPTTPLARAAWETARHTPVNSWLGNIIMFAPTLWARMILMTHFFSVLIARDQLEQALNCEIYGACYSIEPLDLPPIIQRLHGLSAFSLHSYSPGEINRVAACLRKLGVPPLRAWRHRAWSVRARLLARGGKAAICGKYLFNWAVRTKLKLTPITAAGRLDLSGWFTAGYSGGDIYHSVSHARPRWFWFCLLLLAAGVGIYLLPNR

Row | IC50 | Compound
1 | < 1 µM | O=C(O)c1ccccc1Nc1ccc(C(F)(F)F)cc1Nc1ccccc1C(=O)O [xxxi, 2-{[2-[(2-carboxyphenyl)amino]-4-(trifluoromethyl)phenyl]amino}benzoic acid]
2 | 1 to 20 µM | Cc1ccc(Nc2ccccc2C(=O)O)c(Nc2ccccc2C(=O)O)c1 [xl, 2-({2-[(2-carboxyphenyl)amino]-4-methylphenyl}amino)benzoic acid]
3 | > 20 µM | COc1ccc(Nc2ccccc2Nc2ccccc2C(=O)O)c(C(=O)O)c1 [lx, 2-({2-[(2-carboxyphenyl)amino]phenyl}amino)-5-methoxybenzoic acid]
4 | 1 to 20 µM | N#Cc1ccc(Nc2ccccc2Nc2ccccc2C(=O)O)c(C(=O)O)c1 [li, 2-({2-[(2-carboxyphenyl)amino]phenyl}amino)-5-cyanobenzoic acid]
5 | 1 to 20 µM | O=C(O)c1ccccc1Nc1ccc(F)cc1Nc1ccccc1C(=O)O [lii, 2-({2-[(2-carboxyphenyl)amino]-4-fluorophenyl}amino)benzoic acid]
6 | 1 to 20 µM | O=C(O)c1ccccc1Nc1cc(C(F)(F)F)ccc1Oc1ccccc1C(=O)O [lxv, 2-{[2-(2-carboxyphenoxy)-5-(trifluoromethyl)phenyl]amino}benzoic acid]
7 | 1 to 20 µM | N#Cc1ccc(Nc2ccc(C(F)(F)F)cc2Nc2ccccc2C(=O)O)c(C(=O)O)c1 [xvi, 2-{[2-[(2-carboxyphenyl)amino]-4-(trifluoromethyl)phenyl]amino}-5-cyanobenzoic acid]
8 | > 20 µM | O=C(O)c1ccccc1Nc1ccccc1Nc1cc(F)ccc1C(=O)O [lix, 2-({2-[(2-carboxyphenyl)amino]phenyl}amino)-4-fluorobenzoic acid]
9 | < 1 µM | NCc1ccc(Nc2ccc(C(F)(F)F)cc2Nc2ccccc2C(=O)O)c(C(=O)O)c1 [xxiv, 5-(aminomethyl)-2-{[2-[(2-carboxyphenyl)amino]-4-(trifluoromethyl)phenyl]amino}benzoic acid hydrochloride]
10 | > 20 µM | O=C(O)c1ccccc1Nc1ccccc1Nc1ccccc1C(=O)O [lviii]
11 | 1 to 20 µM | O=C(O)c1ccccc1Nc1ccccc1Nc1cc(F)c(F)cc1C(=O)O [lvii, 2-({2-[(2-carboxyphenyl)amino]phenyl}amino)-4,5-difluorobenzoic acid]

Second part, the compound before the results:

Row | Compound | IC50
12 | N[C@@H](Cc1ccccc1)C(=O)NCc1ccc(Nc2cc(C(F)(F)F)ccc2Nc2ccccc2C(=O)O)c(C(=O)O)c1 [xviii, N-(3-carboxy-4-{[2-[(2-carboxyphenyl)amino]-5-(trifluoromethyl)phenyl]amino}benzyl)-L-phenylalaninamide chloride] | > 20 µM
13 | c1ccc(Nc2ccccc2-c2nnn[nH]2)c(Nc2ccccc2-c2nnn[nH]2)c1 [lv, N,N′-bis[2-(1H-tetrazol-5-yl)phenyl]benzene-1,2-diamine, disodium salt] | 1 to 20 µM
14 | NCc1ccc(Nc2cc(C(F)(F)F)ccc2Oc2ccccc2C(=O)O)c(C(=O)O)c1 [xxv, 5-(aminomethyl)-2-{[2-(2-carboxyphenoxy)-5-(trifluoromethyl)phenyl]amino}benzoic acid hydrochloride] | > 20 µM
15 | O=C(O)c1ccccc1Nc1ccc(C(F)(F)F)cc1Nc1ccc(CN2CCCC2)cc1C(=O)O [xxx, 2-{[2-[(2-carboxyphenyl)amino]-5-(trifluoromethyl)phenyl]amino}-5-(pyrrolidin-1-ylmethyl)benzoic acid] | 1 to 20 µM
16 | NCCc1ccc(Nc2ccc(C(F)(F)F)cc2Nc2ccccc2C(=O)O)c(C(=O)O)c1 [xxvii, 5-(2-aminoethyl)-2-{[2-[(2-carboxyphenyl)amino]-4-(trifluoromethyl)phenyl]amino}benzoic acid hydrochloride] | < 1 µM
17 | 5-(aminomethyl)-2-{[2-[(2-carboxyphenyl)thio]-5-(trifluoromethyl)phenyl]amino}benzoic acid [xii] | 1 to 20 µM
18 | NCCc1ccc(Nc2cc(C(F)(F)F)ccc2Nc2ccccc2C(=O)O)c(C(=O)O)c1 [xxxviii, 5-(2-aminoethyl)-2-{[2-[(2-carboxyphenyl)amino]-5-(trifluoromethyl)phenyl]amino}benzoic acid hydrochloride] | < 1 µM
